pIC50: −log10 of the molar value. One block for each compound: values may come before it.
Tests used:
[1] = molecular target: T1, human ALK2 R206H (Homo sapiens, UniProt Q04771, R206H); experiment: Cell-based ALK2-R206H cell activity assay (Smad1-Ser463/Ser465 phosphorylation by AlphaLISA in HEK293-ALK2-R206H cells); settings: read-out: Cell Line (Cell Assay IC50)
T1 construct: expressed in transfected cells; host or cells: HEK293 (ATCC CRL1573), lentivirus transduction, blasticidin selection
T1 sequence (Q04771 21-509 R206H): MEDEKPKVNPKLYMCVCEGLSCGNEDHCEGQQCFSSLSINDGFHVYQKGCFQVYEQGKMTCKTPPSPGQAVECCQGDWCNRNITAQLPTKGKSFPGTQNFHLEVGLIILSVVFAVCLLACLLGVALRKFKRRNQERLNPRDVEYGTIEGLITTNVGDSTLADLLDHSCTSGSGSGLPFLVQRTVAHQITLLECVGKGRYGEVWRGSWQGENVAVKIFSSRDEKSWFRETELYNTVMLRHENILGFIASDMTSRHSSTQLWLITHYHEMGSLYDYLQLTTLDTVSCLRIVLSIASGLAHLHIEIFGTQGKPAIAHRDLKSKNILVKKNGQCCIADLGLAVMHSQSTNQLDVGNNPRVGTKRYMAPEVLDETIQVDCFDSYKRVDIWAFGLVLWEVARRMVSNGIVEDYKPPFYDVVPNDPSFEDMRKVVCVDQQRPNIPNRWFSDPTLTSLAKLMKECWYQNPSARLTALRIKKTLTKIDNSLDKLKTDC
Description: A HEK293 (ATCC, Cat^# CRL1573) based stable cell line expressing human ALK2 R206H cDNA (synthesized by GeneScript, Piscataway, N.J.) and a FLAG tag at the C-terminus was generated by lentivirus transduction and subsequent blasticidin (Life Technologies, Cat^#-A1113902) selection at 10 μg/ml for >2 wks. This cell line was named HEK293-ALK2-R206H.
Test compounds were first diluted to 4 mM or 0.4 mM and then serially diluted 3-fold into 10 different concentrations using DMSO. […] Two μl of the diluted compounds were then dispensed into the HEK293-ALK2-R206H cell-containing wells of the microplates in duplicates. In this way, each compound was tested in 10 doses (3-fold serial dilution with the top concentration being 10 μM or 1 μM). Liquid handling was achieved using a Bravo Automated Liquid Handling Platform (Agilent Technologies). DMSO without compound was used as a negative control. The positive control was 1 μM LDN193189, a known bone morphogenetic protein (BMP inhibitor).
The 10-point dose response curve was used to calculate the IC50 values.
Blank values in the table indicate that the particular compound was not tested in this assay.

[2] = molecular target: T2, ALK2 R206H (GST-tagged mutant ALK2) (Homo sapiens, UniProt Q04771, R206H); experiment: ALK binding assay (LANTHASCREEN TR-FRET competitive binding, displacement of Kinase Tracer 178); settings: ALK2 R206H, LANTHASCREEN TR-FRET competitive binding; read-out: Binding Assay (IC50)
T2 construct: purchased Carna Bioscience or ThermoFisher 09-148 or PV6232
T2 sequence (Q04771 21-509 R206H): T1 sequence (Q04771 21-509 R206H)

SMILES: O=C(C1CC1)N1CCN(c2ccnn3cc(-c4ccc(OC5CCCNC5)cc4)cc23)CC1 (centres unmarked) [Compound 159]
pIC50 [1]: > 7.00 | pIC50 [2]: > 8.00

SMILES: C[C@@H]1CNC[C@H](c2ccc(-c3cc4c(N5CCN(C(=O)C6CC6)CC5)ccnn4c3)cc2)O1 [Compound 164]
pIC50 [1]: 6.30 to 7.00 | pIC50 [2]: > 8.00

SMILES: CCN1CC(Oc2ccc(-c3cc4c(N5CCN(C(=O)C6CC6)CC5)ccnn4c3)cc2)C1 [Compound 167]
pIC50 [1]: > 7.00 | pIC50 [2]: > 8.00

SMILES: C[C@H]1CNC[C@H](c2ccc(-c3cc4c(N5CCN(C(=O)C6CC6)CC5)ccnn4c3)cc2)O1 [Compound 169]
pIC50 [1]: 6.30 to 7.00 | pIC50 [2]: > 8.00

SMILES: C[C@@H]1CN(c2ccnn3cc(-c4ccc(N5CCNCC5)nc4)cc23)CCN1C(=O)C1CC1 [Compound 170]
pIC50 [1]: 6.30 to 7.00 | pIC50 [2]: 7.30 to 8.00

SMILES: CCC(=O)N1CCN(c2ccnn3cc(-c4ccc(N5CCN(CC)CC5)cc4)cc23)CC1 [Compound 173]
pIC50 [1]: < 6.30 | pIC50 [2]: 7.30 to 8.00

SMILES: O=C(C1CC1)N1CCN(c2ccnn3cc(-c4ccc(C5CCNCC5F)cc4)cc23)CC1 (centres unmarked) [Compound 174]
pIC50 [1]: 6.30 to 7.00 | pIC50 [2]: > 8.00

SMILES: CCOC(=O)N1CCN(c2ccnn3cc(-c4ccc([C@H]5CCN(CC)C5)cc4)cc23)CC1 [Compound 181]
pIC50 [1]: > 7.00 | pIC50 [2]: > 8.00

SMILES: CCOC(=O)N1CCN(c2ccnn3cc(-c4ccc(C5CN(C(C)C)C5)cc4)cc23)CC1 [Compound 182]
pIC50 [1]: > 7.00 | pIC50 [2]: > 8.00

SMILES: O=C([C@H]1C[C@@H]1F)N1CCN(c2ccnn3cc(-c4ccc(N5CCNCC5)cc4)cc23)CC1 [Compound 184]
pIC50 [1]: > 7.00 | pIC50 [2]: > 8.00

SMILES: O=C([C@H]1C[C@H]1F)N1CCN(c2ccnn3cc(-c4ccc(N5CCNCC5)cc4)cc23)CC1 [Compound 185]
pIC50 [1]: > 7.00 | pIC50 [2]: > 8.00

SMILES: O=C([C@@H]1C[C@H]1F)N1CCN(c2ccnn3cc(-c4ccc(N5CCNCC5)nc4)cc23)CC1 [Compound 186]
pIC50 [1]: 6.30 to 7.00 | pIC50 [2]: > 8.00

SMILES: CC(C)N1CCc2cc(-c3cc4c(N5CCN(C(=O)C6CC6)CC5)ccnn4c3)sc2C1 [Compound 187]
pIC50 [1]: > 7.00 | pIC50 [2]: > 8.00

SMILES: CCNC(=O)N1CCN(c2ccnn3cc(-c4ccc([C@]5(F)CCCNC5)cc4)cc23)CC1 [Compound 188]
pIC50 [1]: > 7.00 | pIC50 [2]: > 8.00

SMILES: CCNC(=O)N1CCN(c2ccnn3cc(-c4ccc([C@@]5(F)CCCNC5)cc4)cc23)CC1 [Compound 189]
pIC50 [1]: > 7.00 | pIC50 [2]: > 8.00

SMILES: CC(C)N1CCc2nc(-c3cc4c(N5CCN(C(=O)C6CC6)CC5)ccnn4c3)sc2C1 [Compound 191]
pIC50 [1]: > 7.00 | pIC50 [2]: > 8.00

Now from value to compound:

pIC50 [1]: 6.30 to 7.00 | pIC50 [2]: > 8.00
SMILES: NC1CCN(c2ccc(-c3cc4c(N5CCN(C(=O)C6CC6)CC5)ccnn4c3)cc2)CC1 [Compound 158]

pIC50 [1]: 6.30 to 7.00 | pIC50 [2]: > 8.00
SMILES: O=C(C1CC1)N1CCN(c2ccnn3cc(-c4ccc(OC5CCNCC5)cc4)cc23)CC1 [Compound 160]

pIC50 [1]: > 7.00 | pIC50 [2]: > 8.00
SMILES: CCN1CC(O)(c2ccc(-c3cc4c(N5CCN(C(=O)C6CC6)CC5)ccnn4c3)cc2)C1 [Compound 161]

pIC50 [1]: > 7.00 | pIC50 [2]: > 8.00
SMILES: O=C(C1CC1)N1CCN(c2ccnn3cc(-c4ccc(O[C@@H]5CCCNC5)cc4)cc23)CC1 [Compound 162]

pIC50 [1]: > 7.00 | pIC50 [2]: > 8.00
SMILES: O=C(C1CC1)N1CCN(c2ccnn3cc(-c4ccc(O[C@H]5CCCNC5)cc4)cc23)CC1 [Compound 163]

pIC50 [1]: 6.30 to 7.00 | pIC50 [2]: > 8.00
SMILES: O=C(C1CC1)N1CCN(c2ccnn3cc(-c4ccc(C5(O)CCOCC5)cc4)cc23)CC1 [Compound 172]

pIC50 [1]: > 7.00 | pIC50 [2]: > 8.00
SMILES: O=C(C1CC1)N1CCN(c2ccnn3cc(-c4ccc(C5(F)CCCNC5)cc4)cc23)CC1 (centres unmarked) [Compound 177]

pIC50 [1]: > 7.00 | pIC50 [2]: > 8.00
SMILES: O=C(C1CC1)N1CCN(c2ccnn3cc(-c4ccc([C@@]5(F)CCCNC5)cc4)cc23)CC1 [Compound 178]

pIC50 [1]: > 7.00 | pIC50 [2]: > 8.00
SMILES: O=C(C1CC1)N1CCN(c2ccnn3cc(-c4ccc([C@]5(F)CCCNC5)cc4)cc23)CC1 [Compound 179]

From patent publication US10233186B2, “Inhibitors of activin receptor-like kinase” (BLUEPRINT MEDICINES CORPORATION, priority 2016, dated 2019)
